Values quoted from earlier work in patent publication US7006921B1, “Method for accurately estimating pKa of molecules using atom type definitions and partial least squares” (priority 1999, dated 2006).

Conditions: for Measured (pKa): first or only pKa; for Measured (pKa2): second value of the cell

Compound | Measured (pKa) | Measured (pKa2)
O=C(O)c1cnn[nH]1 [1,2,3-triazole-4-carboxylic acid, 1,2,3-triazole-4-carboxylic acid] | 3.22 | 
NCCSCCSCCN [1,8-diamino-3,6-dithiaoctane, 1,8-diamino-3,6-dithiaoctane] | 9.47 | 
NC1CCCCCC1O (stereo not shown) [2-aminocycloheptanol] | 9.25 | 
COc1cncc(Br)c1 [3-bromo-5-methoxypyridine, 3-bromo-5-methoxypyridine] | 2.60 | 
Oc1cccnc1 [3-hydroxypyridine] | 4.80 | 8.74
Nc1cc(Cl)ncn1 [4-amino-6-chloropyrimidine, 4-amino-6-chloropyrimidine] | 2.10 | 
Nc1ccnnc1 [4-aminopyridazine] | 6.65 | 
O=C(O)c1ccc(Br)cc1C(=O)O [4-bromo-1,2-benzenedicarboxylic acid, 4-bromo-1,2-benzenedicarboxylic acid] | 2.5 | 
Nc1ccc(Br)c([N+](=O)[O-])c1 [4-bromo-3-nitroaniline, 4-bromo-3-nitroaniline] | 1.80 | 
O=C(O)c1cc(Br)c[nH]1 [4-bromopyrrol-2-carboxylic acid, 4-bromopyrrol-2-carboxylic acid] | 4.06 | 
Cc1cc(O)cc(C)c1Cl [4-chloro-3,5-dimethylphenol, 4-chloro-3,5-dimethylphenol] | 9.71 | 
COc1cc(C(=O)O)cc(OC)c1O [4-hydroxy-3,5-dimethoxybenzoic acid, 4-hydroxy-3,5-dimethoxybenzoic acid] | 4.34 | 
Oc1c(O)c(O)c(O)c(O)c1O [Benzenehexol] | 9.0 | 
O=C(O)c1coc(C(=O)O)c1 [Furan-2,4-dicarboxylic acid, Furan-2,4-dicarboxylic acid] | 2.63 | 
C1N2CN3CN1CN(C2)C3 [Hexamethylenetetramine] | 6.2 | 
CC#CCN(C)C [N,N-dimethyl-2-butyn-1-amine, N,N-dimethyl-2-butyn-1-amine] | 8.28 | 
Oc1cccc(O)c1O [Pyrogallol] | 9.12 | 
c1c[nH]cn1 [imidazole] | 6.04 | 

The next lines start with the values.

Measured (pKa) | Measured (pKa2) | Compound
10.23 |  | CC(C)NCC(O)C1CCC(O)CC1 (stereo not shown) [1-(4′-hydroxycyclohexyl)-2-(isopropylamino)-ethanol]
8.35 |  | CC(=O)OCCN(C)C [2-(dimethylamino)-ethyl acetate, 2-(dimethylamino)-ethyl acetate]
8.31 |  | CNCC(N)=O [2-(methylamino)-acetamide, 2-(methylamino)-acetamide]
2.86 |  | CC(=O)C(CC(=O)O)C(=O)O (stereo not shown) [2-acetylbutanedioic acid, 2-acetylbutanedioic acid]
3.26 |  | CC(=O)c1cccnc1 [3-acetylpyridine]
9.82 |  | NCCNCCO [5-amino-3-azapentanol, 5-amino-3-azapentanol]
2.17 | 9.20 | CSCC[C@H](N)C(=O)O [Methionine]
3.74 |  | O=C(O)c1cc[nH]n1 [Pyrazole-3-carboxlylic acid, Pyrazole-3-carboxlylic acid]
